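Step 1: Grow cells in 96-well plates. Step 2: Expose to compound for 48 hours at 5 concentrations. Step 3: Interpolate endpoints linearly; if unreached, use highest concentration. At the GI50, growth is halved. TGI marks complete inhibition of growth.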
Assays:
Experiment in all cases: DTP human tumour cell line panel, 48 h
M14 melanoma = system: M14 melanoma
SK-OV-3 ovarian = system: SK-OV-3 ovarian
U251 CNS = system: U251 CNS
BT-549 breast = system: BT-549 breast
MALME-3M melanoma = system: MALME-3M melanoma
K-562 leukemia = system: K-562 leukemia
DU-145 prostate = system: DU-145 prostate
CCRF-CEM leukemia = system: CCRF-CEM leukemia
HCT-15 colon = system: HCT-15 colon
NCI-H226 lung = system: NCI-H226 lung

SMILES	GI50 (M14 melanoma) [µM]	TGI (M14 melanoma) [µM]	GI50 (SK-OV-3 ovarian) [µM]	TGI (SK-OV-3 ovarian) [µM]	GI50 (U251 CNS) [µM]	TGI (U251 CNS) [µM]	GI50 (BT-549 breast) [µM]	TGI (BT-549 breast) [µM]	GI50 (MALME-3M melanoma) [µM]	TGI (MALME-3M melanoma) [µM]	GI50 (K-562 leukemia) [µM]	TGI (K-562 leukemia) [µM]	GI50 (DU-145 prostate) [µM]	TGI (DU-145 prostate) [µM]	GI50 (CCRF-CEM leukemia) [µM]	TGI (CCRF-CEM leukemia) [µM]	GI50 (HCT-15 colon) [µM]	TGI (HCT-15 colon) [µM]	GI50 (NCI-H226 lung) [µM]	TGI (NCI-H226 lung) [µM]
COC(=O)C1=C(C)NC(C)=C(C(=O)OC)C1/C=C(\Cl)c1ccc(Cl)c(Cl)c1	16.6	30.2	21.1	49	14.1	27.1	16.6	32.2	17.5	35.9	10.6	40.3	16.5	32	5.55	31.6	12.3	26.9	15.8	38.2
O=c1ccc(N=Nc2ccc([N+](=O)[O-])cc2)ccc1O	7.19	> 100	28.4	> 100	4.46	> 100	8.74	> 100	14.8	> 100	3.83	> 100	19	> 100	3.68	> 100	3.89	> 100	12.7	> 100
Oc1ccc(CN2CCC(N3CCOCC3)CC2)c2cccnc12	26.9	> 100	> 100	> 100	24.4	> 100	31.9	> 100	29.1	> 100	28.1	> 100	31.3	> 100	23.8	> 100	36.5	> 100	41.4	> 100
C=C(C)C1Cc2c(cc(OC)c3c(=O)c4cccc(O)c4oc23)O1 (centres undefined)	–	50.8	–	33.7	–	34.8	–	34.8	–	48.4	–	> 100	–	> 100	–	> 100	–	> 100	–	44
Clc1cc2c(cc1Cl)Oc1cc(Cl)c(Cl)cc1O2	> 0.625	> 0.625	> 0.625	> 0.625	> 0.625	> 0.625	> 0.625	> 0.625	> 0.625	> 0.625	> 0.625	> 0.625	> 0.625	> 0.625	> 0.625	> 0.625	> 0.625	> 0.625	> 0.625	> 0.625
Nc1ccccc1-c1ccc([N+](=O)[O-])cc1	97.7	> 100	68.3	> 100	40.7	> 100	4.54	37.1	16.5	> 100	1.32	> 100	73.1	> 100	2.31	> 100	14.3	> 100	33.6	> 100
CC/C(=C(/c1ccc(OCCN(C)C)cc1)c1ccc(OC(=O)CCC(=O)c2c(C)[nH]c(/C=C3\N=C(c4ccc[nH]4)C=C3OC)c2C)cc1)c1ccccc1	2.06	4.92	6.99	29.6	1.46	6.23	3.5	20.4	2.68	6.35	2.32	6.37	3.27	16.8	0.435	6.34	0.934	4.48	3.54	22.5
CN(Cc1ccc(Cl)cc1)c1ccc(CO)c(Cl)c1	8.33	22.3	5.18	16.9	3.01	15.9	5.31	19.9	13.4	29.2	3.79	> 65.7	10.8	25.5	15.1	> 66.3	5.42	39.5	0.115	0.285
Clc1ccc(/C=C/c2cc(N3CCOCC3)c3cc(Cl)c(Cl)cc3n2)cc1	> 100	> 100	> 100	> 100	> 100	> 100	0.706	> 40.2	> 100	> 100	> 100	> 100	> 100	> 100	0.302	> 51	> 100	> 100	> 100	> 100
CC(C)[C@H]1CC[C@H]2[C@@H](CC[C@H]3[C@](C)(CN)CCC[C@]23C)C1	1.77	3.18	4.25	16.3	1.67	3.08	15.6	37.5	2.48	7.47	2.25	5.31	1.95	3.58	3.42	12.8	1.81	3.98	4.99	23.5
CC(=O)CCc1ccc(OC2OC(COC(=O)c3cc(O)c(O)c(O)c3)C(O)C(O)C2OC(=O)/C=C/c2ccccc2)cc1 (centres undefined)	18.6	37.4	29.8	68.5	11.9	30.1	35.6	64.6	26.8	46.2	22.6	65.5	23.5	42.8	20.7	52.2	26.2	> 100	16.9	37
C/C=C/C/C=C/CCC(=O)[C@H]1O[C@H]1C(N)=O	13.3	30	27	> 72.7	14.5	28.3	–	25.3	13.7	32.9	19	> 86.8	13.7	27.1	6.02	62.3	8.45	24.1	15.1	40.6

From PubChem BioAssay (NCI)
